Measured values reported in publication PMC6687188, “Novel lactate dehydrogenase inhibitors with in vivo efficacy against Cryptosporidium parvum” (PLoS Pathogens, 2019).
Positions of bridges follow the written chain, without caps; N, C: chain ends. Non-standard residues stand in square brackets, D forms with d. Residues, ends and D or L forms follow the SMILES beside them. ξ: configuration not given here. *: point of attachment. ξNMePhe(4-NMe2) = CNC(Cc1ccc(N(C)C)cc1)C(=O)O; Picolinoyl(3-OH) = O=C(c1ncccc1O)*; ξPip(4-oxo) = O=C1CCNC(C(=O)O)C1; Phg = N[CH](C(=O)O)c1ccccc1; Abu = CC[CH](N)C(=O)O

target: recombinant CpLDH protein (Cryptosporidium parvum, UniProt Q9GT92, F198L/K295E/R251K)

Compound | MEAN CpLDH INHIBITION (%)
O=c1ccc2ccc(CBr)cc2o1 [NSC99027] | -71.89
Cn1c(=O)[nH]c2nncnc2c1=O [NSC99733] | -38.11
Cl.Nc1ccc(OCCCc2c(-c3ccccc3)nc(N)[nH]c2=O)cc1 [NSC100856] | -59.57
Nc1ncnc2c([C@@H]3O[C@H](CO)[C@@H](O)[C@H]3O)[nH]nc12 [NSC102811] | -35.09
COC(=O)[C@@H]1c2cc3c(c(O)c2[C@@H](OC)C[C@@]1(C)O)C(=O)c1c(O)cc2c(c1C3=O)O[C@H]1O[C@@]2(C)[C@H](O)[C@@H](N(C)C)[C@@H]1O [NSC102815] | -3.42
CCC1CN2CCc3cc(OC)c(OC)cc3C2CC1CC1c2cc(OC)c(OC)cc2CCN1C(=O)C1CCCN1C(=O)OCc1ccccc1 (stereo not shown) [NSC103248] | -105.50
O=C1OC(c2ccccc2)=N/C1=C\c1ccc(N(CCCl)CCCl)cc1 [NSC104117] | -18.47
CC1(C)N=C(N)N=C(N)N1c1ccc(CCCCc2ccc(Cl)cc2Cl)cc1 [NSC104129] | -53.74
COc1ccc(C(=O)/C(Br)=C\C(=O)[O-])cc1.[Na+] [NSC104801] | -32.70
NC1=C(Br)C(=O)c2ncccc2C1=O [NSC105808] | -67.00
Cc1ccc(N=Nc2c(O)ccc3ccccc23)cc1 [NSC106296] | -44.71
CO[C@H]1Nc2c(ccc(C)c2O)C(=O)N2C=C(/C=C/C(N)=O)C[C@@H]12 [NSC106408] | -29.99
CC(C)CCCC(=O)CCCCCCC(=O)CCN(O)C(=O)C(N)CO.O=S(=O)(O)O (stereo not shown) [NSC106997] | -28.98
O=C1C=C2C=CC3CC2(O1)C1CCCCN31 (stereo not shown) [NSC107415] | -39.15
CCC1CN2CCc3cc(OC)c(OC)cc3C2CC1CC1c2cc(OC)c(OC)cc2CCN1C(=O)C(Cc1c[nH]c2ccccc12)NC(=O)OC(C)(C)C (stereo not shown) [NSC109350] | -1.18
CN1CCCC2C(c3ccccc3)C(C3=NCCCC3)C(c3ccccc3)CC21.Cl (stereo not shown) [NSC109444] | -58.72
N=C1C=C(N)C(=O)c2[nH]c(=O)ccc21 [NSC111041] | -37.64
CC(C)(O)CCC(O)C(C)(O)C1CCC2(O)C3=CC(=O)C4(O)CC(O)C(O)CC4(C)C3CCC12C.CC(C)(O)CCC(O)C(C)(O)C1CCC2(O)C3=CC(=O)C4CC(O)C(O)CC4(C)C3CCC12C (stereo not shown) [NSC115493] | -100.16
Cc1ccc([S+](c2ccccc2)c2cc(C)ccc2C)cc1.O=C(OC(C(=O)[O-])C(OC(=O)c1ccccc1)C(=O)O)c1ccccc1 (stereo not shown) [NSC116693] | -151.85
Cc1ccc2[c](c1)[Sn]([c]1ccccc1)([c]1ccccc1)[c]1cc(C)ccc1N2C [NSC118030] | -56.74
Cc1ccc(C)c2c(N=Nc3ccccc3[N+](=O)[O-])c(O)[nH]c12 [NSC118732] | -7.91
Cc1ccc(Cl)c2c(N=Nc3ccccc3[N+](=O)[O-])c(O)[nH]c12 [NSC118735] | -15.17
CNc1nc(N(C)C)nc(N(C)C)n1 [NSC118742] | -28.34
S=C=NCc1ccccc1 [NSC118976] | -18.30
Cc1c2ccncc2c(C)c2c1sc1ccccc12 [NSC119686] | -46.09

Compound | MEAN CpLDH INHIBITION (%)
N.N.[Cl][Pt][Cl] [NSC119875] | -45.38
CCCNC1=C(C)C(=O)C2=C(C1=O)[C@H](COC(N)=O)[C@]1(OC)[C@@H]3N[C@@H]3CN21 [NSC123115] | -0.99
COc1ccc2c(O)c3[n+](cc2c1OC)CCc1cc2c(cc1-3)OCO2 [NSC123390] | -31.27
CC1=C\C(O)CC(=O)Cc2nc(co2)C(=O)N2CCC=C2C(=O)OC(C(C)C)C(C)/C=C/C(=O)NC/C=C\1.CCC1NC(=O)C(NC(=O)c2ncccc2O)C(C)OC(=O)C(c2ccccc2)NC(=O)C2CC(=O)CCN2C(=O)C(Cc2ccc(N(C)C)cc2)N(C)C(=O)C2CCCN2C1=O (stereo not shown) [NSC125176] ({Picolinoyl(3-OH)}-T[Abu]P[ξNMePhe(4-NMe2)][ξPip(4-oxo)][Phg]; ester 1-C; configuration not given here) | -0.47
COc1ccc(C2c3cc4c(c(OC)c3CC3OCC(=O)C32)OCO4)cc1OC (stereo not shown) [NSC126727] | -5.88
O=C1C(=O)c2ccccc2C(O)=C1CC=C(Cl)Cl [NSC126771] | -15.17
O=c1cc(O)ccn1[C@@H]1O[C@H](CO)[C@@H](O)[C@H]1O [NSC126849] | -22.36
COc1ccc(-c2cc(=O)c3c(O)cc(O)cc3o2)cc1OC [NSC128305] | -10.13
c1ccc2c(c1)nnn1c3cnccc3nc21 [NSC128734] | -52.88
CCC1=C(C[C@H]2NCCc3cc(OC)c(OC)cc32)C[C@H]2c3cc(OC)c(OC)cc3CCN2C1 [NSC129414] | -16.26
COC1=C(N)C(=O)c2nc(C)ccc2C1=O [NSC132493] | -117.70
CC[C@](C)(O)C(=O)O[C@H]1C(=O)O[C@@H]2C[C@H]3C(C)=CC(=O)[C@@H](O)[C@]3(C)[C@H]3[C@@]4(O)OC[C@]32[C@@H]1[C@@H](C)[C@H]4O [NSC132791] | -161.16
CC1(C)N=C(N)N=C(N)N1c1ccc(OCCCOc2ccccc2)c(Cl)c1.CCS(=O)(=O)O [NSC133071] | -57.79
Br.COC1CN(C)C(=Nc2cccc3ccccc23)S1 (stereo not shown) [NSC135996] | -24.95
CC1=CC23C(COC(=O)C24CO4)C(C(=O)O)=CC3C1C.NCc1ccccc1 (stereo not shown) [NSC136037] | -0.26
CC[C@@]1(O)C[C@H](O[C@H]2C[C@H](N(C)C)[C@H](O)[C@H](C)O2)c2c(O)c3c(c(O)c2[C@H]1O[C@H]1C[C@H](N(C)C)[C@H](O)[C@H](C)O1)C(=O)c1cccc(O)c1C3=O [NSC136044] | -159.43
CCCC(=O)OCC1OC(n2ccc(N)nc2=O)C(OC(=O)CCC)C1OC(=O)CCC (stereo not shown) [NSC138429] | -38.75
CCS(=O)(=O)O.CN(C)C(=O)c1cccc(COc2ccc(N3C(N)=NC(N)=NC3(C)C)cc2Cl)c1 [NSC139105] | -28.54
Cc1cccc(NC(=O)/C=C/c2ccc([N+](=O)[O-])cc2)c1 [NSC139109] | -11.32
CN1c2c(nc(N)[nH]c2=O)NCC1CCNc1ccc(C(=O)N[C@@H](CCC(=O)[O-])C(=O)[O-])cc1.[Na+].[Na+] (stereo partly shown) [NSC139490] | -2.06
CC(C)=CCC(OC(=O)C=C(C)C)C1=CC(=O)c2c(O)ccc(O)c2C1=O (stereo not shown) [NSC140377] | -8.72
O=S(=O)(c1cccc(N=C=S)c1)c1cccc(N=C=S)c1 [NSC140911] | -0.44
Cl.NC(=O)c1cn(C2OC(CO)C(O)C2O)c2ncnc(N)c12 (stereo not shown) [NSC143648] | -33.40
C=C1C(=O)OCC2C(C(=O)O)=CC3C(C)C(C)=CC123 (stereo not shown) [NSC145150] | -64.31
CC(C)(C)CC(C)(C)NCC(O)COc1ccc(C(C)(C)c2ccc(OCC(O)CNC(C)(C)CC(C)(C)C)cc2)cc1.Cl (stereo not shown) [NSC145366] | -111.71

Compound | MEAN CpLDH INHIBITION (%)
O=C1NC(c2cccc3ccccc23)Nc2ccccc21 (stereo not shown) [NSC145669] | 0.07
O=c1cnn(C2OC(CO)C(O)C2O)c(=S)[nH]1 (stereo not shown) [NSC146268] | -43.94
COc1cc2c[n+](C)c3c4cc5c(cc4ccc3c2cc1OC)OCO5.[Cl-] [NSC146397] | -1.75
COc1ccc(C[C@@H]2NC[C@@H](O)[C@@H]2OC(C)=O)cc1.Cl [NSC147340] | -13.68
COC(=O)Nc1nc2ccc(Br)cc2[nH]1 [NSC154754] | -36.36
COc1cc2cc3c4cc(OC)c(OC)cc4cc[n+]3c(C)c2cc1OC.O=C([O-])CS(=O)(=O)O [NSC154890] | -11.41
N#CC1CC(c2ccccc2)Nc2cc(Cl)ccc2N1 (stereo not shown) [NSC155595] | -11.00
COC(=O)[C@@H]1[C@H](O)[C@H](C)[C@H](O)[C@H](C)/C=C\C=C(/C)C(=O)Nc2c(C)c(OC(C)=O)c3c(c2O)C(=O)C(C)=C2OCOC(=C23)/C(C)=C/[C@@](C)(O)[C@H](O)[C@@H](C)[C@H]1OC(C)=O [NSC156215] | -35.58
CC(=O)OCc1cc(=O)n(C)c2c3c4c(cc12)c(C)cc(=O)n4CO3 [NSC157004] | -1.50
CCN(CC)CCCC(C)Nc1ccnc(/C=C/c2ccc(Cl)cc2)c1 (stereo not shown) [NSC157389] | -3.33
Cc1ccc([S+](c2ccc(C)cc2)c2ccc(C)cc2)cc1 [NSC157930] | -72.47
CCOC(=O)/C=C/c1c(C)[nH]c(=O)[nH]c1=O [NSC159935] | -51.31
Cc1c2cnccc2c(C)c2c1c1ccccc1n2CCOC(=O)c1ccccc1 [NSC163443] | -14.23
CC(=O)[O][Sn]([CH2]c1ccccc1)([CH2]c1ccccc1)[CH2]c1ccccc1 [NSC164909] | -58.07
CCC[CH2][Sn]([CH2]CCC)([CH2]CCC)[O]c1cc(Cl)c(Cl)cc1Cl [NSC164914] | -26.61
COC(=O)[C@@]12OC[C@]34[C@H]([C@@H](O)[C@@H]1O)[C@@]1(C)CC(=O)C(O)=C(C)[C@@H]1C[C@H]3OC(=O)[C@H](OC(=O)/C=C(\C)C(C)C)[C@@H]24 [NSC165563] | -22.46
CCSC(=O)N1c2ccc(OC)cc2C=CC1C#N (stereo not shown) [NSC165897] | -41.74
CN1CCN(CCNc2ccc(CO)c3sc4ccccc4c(=O)c23)CC1 [NSC166381] | -6.81
CSc1ccc(NC(=O)CCl)cc1 [NSC166464] | -7.16
CCOC(=O)C(CC(C)C)NC(=O)C(Cc1ccc(N(CCCl)CCCl)cc1)NC(C)=O (stereo not shown) [NSC167780] | -51.52
CC(=O)OCCN1c2ccccc2Sc2cnccc21 [NSC168221] | -24.94
Cc1cc2nc(C=C(C(F)(F)F)C(F)(F)F)oc2cc1C [NSC168415] | -49.77
CCC[CH2][Pb]([Cl])([CH2]CCC)[CH2]CCC [NSC168597] | -54.94
